Data published in patent publication US9668477B2, “Active compound combinations” (BAYER CROPSCIENCE AG, priority 2012, dated 2017).

Key:
Assay type in all cases: in vivo
Pyrenophora teres = assay: Pyrenophora teres-test (barley)/preventive; settings: Table F1, 8 days after inoculation
Experimental: (§1) Solvent: 49 parts by weight of N,N-dimethylacetamide
(§2) Emulsifier: 1 part by weight of alkylaryl polyglycol ether
(§3) To produce a suitable preparation of active compound, 1 part by weight of active compound or active compound combination is mixed with the stated amounts of solvent and emulsifier, and the concentrate is diluted with water to the desired concentration.
(§4) To test for preventive activity, young plants are sprayed with the preparation of active compound or active compound combination at the stated rate of application.
After the spray coating has been dried, the plants are sprayed with a spore suspension of Pyrenophora teres. The plants remain for 48 hours in an incubation cabinet at approximately 20° C. and a relative atmospheric humidity of approximately 100%.
(§5) The plants are placed in the greenhouse at a temperature of approximately 20° C. and a relative atmospheric humidity of approximately 80%.
(§6) The test is evaluated 8 days after the inoculation. 0% means an efficacy which corresponds to that of the untreated control, while an efficacy of 100% means that no disease is observed.

[1] = system: Blumeria graminis f.sp. hordei; assay: Blumeria test (barley)/preventive; settings: Table B1, 7 days after inoculation
Experimental: (§7) Solvent: 49 parts by weight of N,N-dimethylacetamide Emulsifier: 1 part by weight of alkylaryl polyglycol ether To produce a suitable preparation of active compound, 1 part by weight of active compound or active compound combination is mixed with the stated amounts of solvent and emulsifier, and the concentrate is diluted with water to the desired concentration. To test for preventive activity, young plants are sprayed with the preparation of active compound or active compound combination at the stated rate of application. After the spray coating has been dried, the plants are dusted with spores of Blumeria graminis f.sp. hordei.

Uromyces appendiculatus = assay: Uromyces test (beans)/preventive; settings: 10 days after inoculation
Experimental: (§8) Solvent: 24.5 parts by weight of acetone • 24.5 parts by weight of dimethylacetamide
as §2
(§9) To produce a suitable preparation of active compound, 1 part by weight of active compound is mixed with the stated amounts of solvent and emulsifier, and the concentrate is diluted with water to the desired concentration.
(§10) To test for preventive activity, young plants are sprayed with the preparation of active compound at the stated rate of application. After the spray coating has dried on, the plants are inoculated with an aqueous spore suspension of the causal agent of bean rust (Uromyces appendiculatus) and then remain for 1 day in an incubation cabinet at approximately 20° C. and a relative atmospheric humidity of 100%.
The plants are then placed in a greenhouse at approximately 21° C. and a relative atmospheric humidity of approximately 90%.
The test is evaluated 10 days after the inoculation. 0% means an efficacy which corresponds to that of the untreated control, while an efficacy of 100% means that no disease is observed.

Phakopsora pachyrhizi = assay: Phakopsora test (soybeans)/preventive; settings: 7 days after inoculation
Venturia inaequalis = assay: Venturia test (apples)/preventive; settings: Table I1, 10 days after inoculation
Experimental: (§11) Solvent: 24.5 parts by weight of acetone • 24.5 parts by weight of dimethylacetamide Emulsifier: 1 part by weight of alkylaryl polyglycol ether To produce a suitable preparation of active compound, 1 part by weight of active compound is mixed with the stated amounts of solvent and emulsifier, and the concentrate is diluted with water to the desired concentration. To test for preventive activity, young plants are sprayed with the preparation of active compound at the stated rate of application.

Alternaria solani = assay: Alternaria test (tomatoes)/preventive; settings: 3 days after inoculation
Experimental: as §8, §2, §9
as §10, with “Alternaria solani. The plants are” for “the causal agent of bean rust (Uromyces appendiculatus) and”, “placed” for “remain for 1 day”
The test is evaluated 3 days after the inoculation. 0% means an efficacy which corresponds to that of the untreated control while an efficacy of 100% means that no disease is observed.

Leptosphaeria nodorum = Leptosphaeria nodorum test (wheat)/preventive; settings: Table C1, 8 days after inoculation
Experimental: as §7, with “sprayed” for “dusted”, “a spore suspension” for “spores”, “Leptosphaeria nodorum.” for “Blumeria graminis f.sp. hordei.”

Puccinia triticina = assay: Puccinia triticina-test (wheat)/preventive; settings: Table E1, 8 days after inoculation
Experimental: as §1, §2, §3, §4
After the spray coating has been dried, the plants are sprayed with a spore suspension of Puccinia triticina. The plants remain for 48 hours in an incubation cabinet at approximately 20° C. and a relative atmospheric humidity of approximately 100%.
as §5, §6

Sphaerotheca fuliginea = assay: Sphaerotheca test (cucumbers)/preventive; settings: Table G1, 7 days after inoculation
Experimental: as §11, with “application. After the spray coating has dried on, the plants are inoculated with an aqueous spore suspension of Sphaerotheca fuliginea.” for “application.”

[2] = Phakopsora pachyrhizi, 168 h, Table D1, 1 ppm a.i., read-out: Efficacy in % found

Which “Efficacy in % found” value (Pyrenophora teres; 20 ppm a.i.) does the source give for `CO/N=C(/C1=NOCCO1)c1ccccc1Oc1ncnc(Oc2ccccc2Cl)c1F` [3.12, fluoxastrobin] here?
The value was 13%.

Which results are given for `CO/C=C(/C(=O)OC)c1ccccc1COc1cccc(C(F)(F)F)n1` [3.16, picoxystrobin]?
Efficacy in % found ([1]; 40 ppm a.i.): 30%; Efficacy in % found (Uromyces appendiculatus; Table H1, 2.5 ppm a.i.): 65%; Efficacy in % found (Pyrenophora teres; 40 ppm a.i.): 75%

Which pest or weed control at 1 ppm (Phakopsora pachyrhizi; [2]) does the source give for `CC(C1CC1)C(O)(Cn1cncn1)c1ccc(Cl)cc1` (stereo not drawn) [1.5, cyproconazole] here?
Its pest or weed control at 1 ppm is 63%.

And the “Efficacy in % found” value (Venturia inaequalis; 2 ppm a.i.)?
The value was 40%.

And the “Efficacy in % found” value (Uromyces appendiculatus; Table H3, 1 ppm a.i.)?
The value was 57%.

`Cn1cc(C(=O)Nc2ccccc2-c2cc(F)c(F)c(F)c2)c(C(F)F)n1` [2.8, fluxapyroxad] was tested. Which “Efficacy in % found” value (Phakopsora pachyrhizi; Table D1, 1 ppm a.i.) did it give?
The value was 0%.

And the “Efficacy in % found” value (Uromyces appendiculatus; Table H1, 0.25 ppm a.i.)?
Its value is 0%.

And the “Efficacy in % found” value (Pyrenophora teres; 40 ppm a.i.)?
Its value is 94%.

`O=C(NCCc1ncc(C(F)(F)F)cc1Cl)c1ccccc1C(F)(F)F` [2.6, fluopyram] was tested. Which pest or weed control at 4 ppm (Phakopsora pachyrhizi; Phakopsora pachyrhizi, 168 h, Table D1, 4 ppm a.i., read-out: Efficacy in % found) did it give?
The pest or weed control at 4 ppm was 0%.

What about the “Efficacy in % found” value (Pyrenophora teres; 40 ppm a.i.) of the same molecule?
The value was 94%.

Which “Efficacy in % found” value (Phakopsora pachyrhizi; Table D1, 1 ppm a.i.) does the source give for `Cn1cc(C(=O)Nc2ccc(F)cc2-c2ccc(Cl)c(Cl)c2)c(C(F)F)n1` [2.1, bixafen] here?
The value was 0%.

What about the “Efficacy in % found” value (Venturia inaequalis; 0.5 ppm a.i.) of the same molecule?
Its value is 0%.

And the “Efficacy in % found” value (Pyrenophora teres; 80 ppm a.i.)?
The value was 94%.

And the “Efficacy in % found” value (Alternaria solani; Table A1, 0.5 ppm a.i.)?
The value was 43%.

For `Fc1ccc([C@]2(Cn3cncn3)O[C@H]2c2ccccc2Cl)cc1` (racemic) [1.12, epoxiconazole], which “Efficacy in % found” value (Phakopsora pachyrhizi; Table D2, 0.5 ppm a.i.) is on record?
Its value is 23%.

What about the “Efficacy in % found” value (Leptosphaeria nodorum; 40 ppm a.i.) of the same molecule?
The value was 33%.

For `CC1CC(C)(C)c2cccc(NC(=O)c3cn(C)nc3C(F)F)c21` (stereo not drawn) [2.32, 3-(difluoromethyl)-1-methyl-N-(1,1,3-trimethyl-2,3-dihydro-1H-inden-4-yl)-1H-pyrazole-4-carboxamide], which “Efficacy in % found” value ([1]; 80 ppm a.i.) is on record?
Its value is 30%.

How did the “Efficacy in % found” value (Venturia inaequalis; 0.5 ppm a.i.) turn out when `CON=C(C(=O)OC)c1ccccc1CON=C(C)c1cccc(C(F)(F)F)c1` [3.22, trifloxystrobin] was run?
The value was 86%.

And the “Efficacy in % found” value (Puccinia triticina; 20 ppm a.i.)?
The value was 60%.

`CO/C=C(/C(=O)OC)c1ccccc1Oc1cc(Oc2ccccc2C#N)ncn1` [3.3, azoxystrobin] was tested. Which “Efficacy in % found” value (Phakopsora pachyrhizi; Table D1, 0.25 ppm a.i.) did it give?
The value was 15%.

What about the “Efficacy in % found” value (Venturia inaequalis; 0.5 ppm a.i.) of the same molecule?
The value was 88%.

And the “Efficacy in % found” value ([1]; 20 ppm a.i.)?
Its value is 10%.

And the “Efficacy in % found” value (Uromyces appendiculatus; Table H3, 0.125 ppm a.i.)?
The value was 0%.

And the “Efficacy in % found” value (Pyrenophora teres; 20 ppm a.i.)?
The value was 75%.

Which “Efficacy in % found” value (Puccinia triticina; 20 ppm a.i.) does the source give for `COC(=O)N(OC)c1ccccc1COc1ccn(-c2ccc(Cl)cc2)n1` [3.17, pyraclostrobin] here?
Its value is 20%.

What does the source list for `OC(Cc1ccccc1Cl)(Cn1nc[nH]c1=S)C1(Cl)CC1` (stereo not drawn) [1.41, prothioconazole]?
pest or weed control at 0.5 ppm (Phakopsora pachyrhizi; Phakopsora pachyrhizi, 168 h, Table D2, 0.5 ppm a.i., read-out: Efficacy in % found): 20%; Efficacy in % found (Puccinia triticina; 80 ppm a.i.): 20%

With `Cn1c(=O)c2sc3c(=O)n(C)c(=O)c3sc2c1=O` [15.61, 2,6-dimethyl-1H,5H-[1,4]dithiino[2,3-c:5,6-c′]dipyrrole-1,3,5,7(2H,6H)-tetrone] as the molecule, how does the “Efficacy in % found” value (Sphaerotheca fuliginea; 25 ppm a.i.) read?
Its value is 38%.

What about the “Efficacy in % found” value (Puccinia triticina; 800 ppm a.i.) of the same molecule?
The value was 40%.

And the “Efficacy in % found” value (Alternaria solani; Table A2, 50 ppm a.i.)?
Its value is 23%.

Which “Efficacy in % found” value (Venturia inaequalis; 20 ppm a.i.) does the source give for `N#Cc1c(Cl)c(Cl)c(Cl)c(C#N)c1Cl` [5.4, chlorothalonil] here?
Its value is 68%.

What about the “Efficacy in % found” value (Sphaerotheca fuliginea; 5 ppm a.i.) of the same molecule?
Its value is 19%.

And the “Efficacy in % found” value (Uromyces appendiculatus; Table H2, 20 ppm a.i.)?
The value was 0%.

What about the “Efficacy in % found” value (Puccinia triticina; 160 ppm a.i.) of the same molecule?
Its value is 20%.

What about the “Efficacy in % found” value (Alternaria solani; Table A2, 20 ppm a.i.) of the same molecule?
The value was 8%.

How did the “Efficacy in % found” value ([1]; 20 ppm a.i.) turn out when `CC(C)c1ccc(Cl)cc1CN(C(=O)c1c(C(F)F)nn(C)c1F)C1CC1` [15.151, N-(5-chloro-2-isopropylbenzyl)-N-cyclopropyl-3-(difluoromethyl)-5-fluoro-1-methyl-1H-pyrazole-4-carboxamide] was run?
The value was 0%.

And the “Efficacy in % found” value (Pyrenophora teres; 20 ppm a.i.)?
Its value is 88%.

And the “Efficacy in % found” value (Alternaria solani; Table A1, 0.25 ppm a.i.)?
Its value is 39%.

Which “Efficacy in % found” value ([1]; 80 ppm a.i.) does the source give for `CC(C)CC(C)c1sccc1NC(=O)c1cn(C)nc1C(F)(F)F` (stereo not drawn) [2.21, penthiopyrad] here?
The value was 30%.

What about the “Efficacy in % found” value (Pyrenophora teres; 80 ppm a.i.) of the same molecule?
The value was 63%.

What does the source list for `CC(C)(C)C(O)(CCc1ccc(Cl)cc1)Cn1cncn1` (stereo not drawn) [1.47, tebuconazole]?
pest or weed control at 1 ppm (Phakopsora pachyrhizi; [2]): 58%; Efficacy in % found (Sphaerotheca fuliginea; 2.5 ppm a.i.): 38%; Efficacy in % found (Uromyces appendiculatus; Table H2, 2 ppm a.i.): 30%

What does the source list for propineb [5.29]?
Efficacy in % found (Venturia inaequalis; 5 ppm a.i.): 14%; Efficacy in % found (Sphaerotheca fuliginea; 10 ppm a.i.): 29%; Efficacy in % found (Uromyces appendiculatus; Table H2, 20 ppm a.i.): 56%; Efficacy in % found (Puccinia triticina; 400 ppm a.i.): 30%; Efficacy in % found (Leptosphaeria nodorum; 400 ppm a.i.): 33%; Efficacy in % found (Alternaria solani; Table A2, 20 ppm a.i.): 12%

For `Cn1cc(C(=O)Nc2cccc3c2[C@@H]2CC[C@H]3C2=C(Cl)Cl)c(C(F)F)n1` (racemic) [2.29, benzovindiflupyr], which “Efficacy in % found” value (Phakopsora pachyrhizi; Table D1, 0.5 ppm a.i.) is on record?
Its value is 8%.

What about the “Efficacy in % found” value (Pyrenophora teres; 40 ppm a.i.) of the same molecule?
The value was 0%.

For `CC1(C)CCC(Cc2ccc(Cl)cc2)C1(O)Cn1cncn1` (stereo not drawn) [1.30, metconazole], which “Efficacy in % found” value (Puccinia triticina; 40 ppm a.i.) is on record?
Its value is 70%.
